Test results reported in the NIST ThermoML archive (doi:10.1016/j.fluid.2005.08.018).
Where “and” joins values, the source holds several entries; their conditions need not be identical. Identical values can stand only once. ± gives the expanded uncertainty stated by the source.

Assay: activity coefficient (dimensionless); of the first substance listed, at infinite dilution; xn = mol fraction of the nth substance listed
Settings: Liquid, x1 = 0
[1] = 303.15 K, comparative tensimetry
[2] = 308.15 K, comparative tensimetry
[3] = 313.15 K, comparative tensimetry
[4] = 318.15 K, comparative tensimetry
[5] = 323.15 K, comparative tensimetry
[6] = 328.15 K, comparative tensimetry
[7] = 333.15 K, comparative tensimetry
[8] = 372.15 K, circulating still method
[9] = 363.15 K, circulating still method
[10] = 358.15 K, circulating still method
[11] = 368.15 K, circulating still method

For `CCCCO` [butan-1-ol] + O, the activity coefficient (273.35 K, headspace analysis) was 32.6 ± 1, the activity coefficient (283.15 K, headspace analysis) was 40.4 ± 1.2 and the activity coefficient (293.15 K, headspace analysis) was 48.4 ± 1.5. The activity coefficient [1] was 53.4 ± 1.6, the activity coefficient [2] was 57.2 ± 1.7 and the activity coefficient [3] was 58.9 ± 1.8. For the same compound, the activity coefficient [4] was 60.2 ± 1.8, the activity coefficient [5] was 61.5 ± 1.8 and the activity coefficient (323.15 K, headspace analysis) was 58.7 and 59.4. The activity coefficient [6] was 62.8 ± 1.9, the activity coefficient [7] was 63.4 ± 1.9 and the activity coefficient [8] was 56.1 ± 1.7.

`CCCCCO` [pentan-1-ol] + O showed an activity coefficient (273.35 K, headspace analysis) of 121 ± 4, an activity coefficient (283.15 K, headspace analysis) of 156 ± 5 and an activity coefficient (293.15 K, headspace analysis) of 184 ± 6. It also gave an activity coefficient (303.15 K, inert gas stripping) of 203 ± 6, an activity coefficient (313.15 K, inert gas stripping) of 221 ± 7 and an activity coefficient (323.15 K, inert gas stripping) of 230 ± 7. It also gave an activity coefficient (333.15 K, Rayleigh distillation) of 221 ± 7, an activity coefficient (343.15 K, Rayleigh distillation) of 206 ± 6 and an activity coefficient (353.15 K, circulating still method) of 203 ± 6. The activity coefficient [9] was 181 ± 5 and the activity coefficient (371.15 K, circulating still method) was 169 ± 5.

`CCCO` [propan-1-ol] + O showed an activity coefficient (273.35 K, headspace analysis) of 8.9 ± 0.3, an activity coefficient (283.15 K, headspace analysis) of 11.2 ± 0.3 and an activity coefficient (293.15 K, headspace analysis) of 13.5 ± 0.4. The activity coefficient [1] was 15.3 ± 0.5, the activity coefficient [2] was 16.1 ± 0.5 and the activity coefficient [3] was 16.7 ± 0.5. For the same compound, the activity coefficient [4] was 17.5 ± 0.5, the activity coefficient [5] was 18.1 ± 0.5 and the activity coefficient [6] was 18.6 ± 0.6. For the same compound, the activity coefficient [7] was 19 ± 0.6, the activity coefficient [10] was 20.1 ± 0.6 and the activity coefficient [9] was 19.5 ± 0.6. The activity coefficient [11] was 18.7 ± 0.6 and the activity coefficient [8] was 18.9 ± 0.6.

With `CCO` [ethanol] + O the activity coefficient (273.35 K, headspace analysis) was 2.54 ± 0.08, the activity coefficient (283.15 K, headspace analysis) was 3.13 ± 0.09 and the activity coefficient [1] was 4.14 ± 0.12. The activity coefficient [2] was 4.43 ± 0.13, the activity coefficient [3] was 4.66 ± 0.14 and the activity coefficient [4] was 4.85 ± 0.15. The activity coefficient [5] was 5.03 ± 0.15, the activity coefficient [6] was 5.2 ± 0.16 and the activity coefficient [7] was 5.3 ± 0.16. For the same compound, the activity coefficient [10] was 5.9 ± 0.2, the activity coefficient [9] was 6 ± 0.2 and the activity coefficient [11] was 6.1 ± 0.2. For the same compound, the activity coefficient [8] was 6.2 ± 0.2.

With `CO` [methanol] + O the activity coefficient (273.35 K, headspace analysis) was 1.23 ± 0.04, the activity coefficient (283.15 K, headspace analysis) was 1.4 ± 0.04 and the activity coefficient (293.15 K, headspace analysis) was 1.55 ± 0.05. The activity coefficient [1] was 1.71 ± 0.05, the activity coefficient [2] was 1.8 ± 0.05 and the activity coefficient [3] was 1.88 ± 0.06. It also gave an activity coefficient [4] of 1.95 ± 0.06, an activity coefficient [5] of 2.02 ± 0.06 and an activity coefficient [6] of 2.09 ± 0.06. For the same compound, the activity coefficient [7] was 2.16 ± 0.07, the activity coefficient (358.15 K, circulation still method) was 2.31 ± 0.07 and the activity coefficient (363.15 K, circulation still method) was 2.38 ± 0.07. The activity coefficient (368.15 K, circulation still method) was 2.41 ± 0.07 and the activity coefficient (372.15 K, circulation still method) was 2.4 ± 0.07.
